Experiments:
[1] = molecular target: T1, Sodium-dependent dopamine transporter (Rattus norvegicus, UniProt P23977); assay: Inhibitory constant towards reuptake of [125I]-13 from dopamine transporter in rat striatal membranes; format: cell membranes, Membrane
[2] = molecular target: T1, Sodium-dependent dopamine transporter; assay: Inhibitory constant towards reuptake of [125I]-12 from dopamine transporter in rat striatal membranes; format: cell membranes, Membrane

T1 sequence (P23977 whole entry): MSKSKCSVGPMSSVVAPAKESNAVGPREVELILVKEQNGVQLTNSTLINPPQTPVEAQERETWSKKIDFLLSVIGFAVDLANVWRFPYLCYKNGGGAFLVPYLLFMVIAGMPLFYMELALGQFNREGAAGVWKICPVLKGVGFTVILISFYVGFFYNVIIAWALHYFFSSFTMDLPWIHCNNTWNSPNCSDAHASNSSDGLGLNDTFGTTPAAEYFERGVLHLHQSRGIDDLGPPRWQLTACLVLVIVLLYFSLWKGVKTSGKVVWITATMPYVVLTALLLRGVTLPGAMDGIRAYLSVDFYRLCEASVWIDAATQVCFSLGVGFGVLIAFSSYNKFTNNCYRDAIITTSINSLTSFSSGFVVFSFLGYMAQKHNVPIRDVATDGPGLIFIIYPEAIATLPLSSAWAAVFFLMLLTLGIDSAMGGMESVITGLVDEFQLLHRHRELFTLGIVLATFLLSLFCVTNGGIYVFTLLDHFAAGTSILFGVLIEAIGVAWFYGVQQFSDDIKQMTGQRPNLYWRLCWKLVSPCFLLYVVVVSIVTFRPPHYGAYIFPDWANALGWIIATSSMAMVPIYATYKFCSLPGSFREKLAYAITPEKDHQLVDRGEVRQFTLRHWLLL

## OC1(c2ccc(Cl)cc2)c2ccccc2C2=NCCN21 (configuration not stated) [MAZINDOL]
[1]
  Ki: 41.6 nM
[2]
  Ki: 32 nM
